Columns and labels:
[1] = In vitro microsomal metabolic stability, CD-1 mouse liver microsomes; type: in vitro ADME; conditions: for Remaining (T = 60 min): with NADPH; for Remaining (T = NCF60 min): without NADPH regenerating system; for Remaining (T = 60 min) / Remaining (T = NCF60 min): 60 min
Procedure: (§1) Buffers: PBK Buffer: 50 mM potassium phosphate buffer (PPB), pH 7.2, with 3.3 mM Magnesium Chloride.
(§2) TA Intermediate solution: Compound or control (3 μL) diluted from stock solution (10 mM) with 297 μL 90.0% methanol/water. (Conc: 100 μM; 1.0% DMSO, 89.1% MeOH).
(§3) Control cocktail intermediate solution: Each control (3 μL) was diluted with 291 μL 90.0% methanol/water.
(§4) Diluted TA intermediate stock solution and PC control stock were made by transferring 80 μL of 100 μM TA stock solution into new tubes and then adding 720 μL of 1.0% DMSO in 50 mM potassium phosphate buffer (conc. 10 μM; 1.0% DMSO, 8.91% MeOH).
(§5) Preparation of Liver microsomes working solution (1.25×)(final Conc.: 0.5 mg/mL).
(§6) Acetonitrile:methanol (9:1, v/v)(including 200 ng/mL tolbutamide and 200 ng/ml labetalol hydrochloride as internal standards).
(§7) Working solution: Intermediate solution (80 μL) was diluted with 720 μL 1.0% DMSO in 50 mM potassium phosphate buffer (Conc.: 10 μM; 1.0% DMSO, 8.91% MeOH)
(§8) Procedure: Stock solution was added to each of the time point plates. Microsomes solution (360 μL/well), TA/PC (45 μL/well), and NADPH (45 μL/well) min. (Conc: 1.0 μM, 0.10% DMSO, 0.891% MeOH) were added to the incubation plates. To the T60 and NCF60 plate, TA (15 ul/well) and Microsomes (120 ul) were added. To the blank plate, microsome (50 ul/well) with stop solution (150 ul/well) were added. At the end of each time point, 50 ul/well was aliquoted from the incubation plate. The sampling plates were shaken for approximately 10 min. on a shaker and the samples were centrifuged at 4000 rpm for 15 min. Supernatant (120 μL) was transferred for LC/MS/MS.Compounds from Table 3 were incubated at 37° C. with liver microsomes (pooled from multiple donors) at 1 μM in the presence of a NADPH regenerating system at 0.5 mg/ml microsomal protein. Positive controls included testosterone (3A4 substrate), propafenone (2D6) and diclofenac (2C9), which were incubated with microsomes in the presence of an NADPH regenerating system. At time points (0, 5, 10, 20, 30 and 60 minutes), samples were removed and immediately mixed with cold acetonitrile containing the internal standard (IS). Test compounds incubated with microsomes without the NADPH regenerating system for 60 min are also included. A single point for each test condition (n=1) was obtained, and samples were analyzed by LC/MS/MS. Disappearance of the test compound was assessed based on peak area ratios of analyte/IS (no standard curve).

[2] = In vitro microsomal metabolic stability, human liver microsomes; type: in vitro ADME; conditions: for Remaining (T = 60 min): with NADPH; for Remaining (T = NCF60 min): without NADPH regenerating system; for Remaining (T = 60 min) / Remaining (T = NCF60 min): 60 min
Procedure: as §1, §2, §3, §4, §5, §6, §7, §8

[3] = test system: S6K1 (Thr389) phosphorylation (mTORC1 activity) in wild-type (WT) 293T cells; assay: Inhibition of S6K1 (Thr389) phosphorylation in wild-type 293T cells (ELISA); type: cell-based, human; conditions: for fold lower potency compared with RAD001 (by IC50) / extent of inhibition of S6K1 (Thr389) phosphorylation: wild-type cells; for extent of inhibition of S6K1 (Thr389) phosphorylation: with increasing concentrations; for IC50: Homo sapiens, HEK-293T, 2 h, wild-type 293T cells, 2 hours treatment
Procedure: (§9) Treatment of wild-type (WT) and FKBP12 knock-out 293T cells with RAD001 (everolimus) and test compounds. WT and FKBP12 knock-out 293T cells were cultured in Dulbecco's modified Eagle's medium (Gibco #11971-025) supplemented with 10% fetal bovine serum (Gibco #26140-079). Cells were plated at a density of 15,000 cells per well in poly-D-Lysine coated 96-well plates (Corning, #354461) and were incubated at 37° C., 5% CO2 for 24 hours until they reached ˜80% confluence. Cells were treated with RAD001 or test compounds reconstituted in dimethyl sulfoxide (DMSO) using a 8-11-point dose range, from 0.001 pM to 10 μM. All treatments were performed in duplicates for 2 hours at 37° C. Cell culture media supplemented with blank dimethyl sulfoxide (DMSO) was used as a negative control for all compounds. Phosphorylated amounts of S6K1 (Thr389) were measured using an ELISA kit (Invitrogen 85-86052-11), following the manufacture's protocol.
(§10) S6K1 is an immediate downstream target of mTORC1 and therefore phosphorylation of S6K1 at Thr389 residue is used to measure mTORC1 activity (PMID: 16968213). Amounts of phosphorylated S6K1 (Thr389) were measured in WT and FKBP12 knock-out 293T cells treated with either RAD001 or Compound 44 (FIGS. 1A and 1B), and Compound 45 (FIGS. 1C and 1D).

[4] = test system: S6K1 (Thr389) phosphorylation (mTORC1 activity) in FKBP12 knock-out 293T cells; assay: Inhibition of S6K1 (Thr389) phosphorylation in FKBP12 knock-out 293T cells (ELISA); type: cell-based, human; conditions: for selectivity for FKBP12 compared with RAD001 (in words): wild-type versus FKBP12 knock-out cells
From the text: Example Generation of FKBP 12 knock-out cells. A CRISPR/Cas9 system was used to deliver ribonucleoprotein complexes containing guide RNA sequences that target FKBP12 (ac[…], location 1369062; ccactactcac[…], location 1369181) in HEK293T cells using Lipofectamine CRISPRMAX transfection reagent (Invitrogen CMAX00008). Cell clones were screened by immunoblotting with anti-FKBP-specific antibody (Novus, NB300-508). Single cells that were deficient for FKBP12 protein were selected and cloned.
as §9, §10

[5] = Mouse liver microsomes, 1 μM, 0.5 mg/ml protein, NADPH
[6] = CD-1, mouse, mouse liver microsomes, pH 7.2
[7] = human, human liver microsomes, pH 7.2

Molecule | Remaining (T = 60 min) ([1]; Mouse liver microsomes) [%] | Remaining (T = NCF60 min) ([1]; Mouse liver microsomes) [%] | fold lower potency compared with RAD001 (by IC50) [3] [fold] | extent of inhibition of S6K1 (Thr389) phosphorylation [3] | inhibition of S6K1 (Thr389) phosphorylation in the absence of FKBP12 (in words) ([4]; FKBP12 knock-out cells) | IC50 [3] [nM] | selectivity for FKBP12 compared with RAD001 (in words) [4] | also measured
CO[C@H]1C[C@@H]2CC[C@@H](C)[C@@](O)(O2)C(=O)C(=O)N2CCCC[C@H]2C(=O)O[C@H]([C@H](C)C[C@@H]2CC[C@@H](O)[C@H](OC)C2)CC[C@H](C)/C=C(\C)[C@@H](O)[C@@H](OC)C(=O)[C@H](C)C[C@H](C)/C=C/C=C/C=C/1C [32-Deoxo Rapamycin, 32-deoxorapamycin, reference compound] | 36 | 110 |  |  |  |  |  | CL ([1]; Mouse liver microsomes): 35.1 µL/min/mg; CLint ([1]; Mouse liver microsomes): 139 mL/min/kg; T1/2 [1, 5]: 39.5 min; CL ([2]; Human liver microsomes): 405 µL/min/mg; CLint ([2]; Human liver microsomes): 364 mL/min/kg; T1/2 ([2]; Human liver microsomes, 1 μM, 0.5 mg/ml protein, NADPH): 3.4 min; Remaining (T = 60 min) ([2]; Human liver microsomes): 0.00%; Remaining (T = NCF60 min) ([2]; Human liver microsomes): 96%
CO[C@@H]1C[C@H](C[C@@H](C)[C@@H]2CC[C@H](C)/C=C(\C)[C@@H](O)[C@@H](OC)C(=O)[C@H](C)C[C@H](C)/C=C/C=C/C=C(\C)C(NS(=O)(=O)c3ccccc3)C[C@@H]3CC[C@@H](C)[C@@](O)(O3)C(=O)C(=O)N3CCCC[C@H]3C(=O)O2)CC[C@H]1O (some centres unmarked) [Compound 16] |  |  | ~28 | complete inhibition | comparable to that of RAD001 |  |  | inhibition at 10 µM ([4]; Homo sapiens, HEK-293T, FKBP12 knock-out cells, 10 μM (highest tested concentration)): ~70%
COc1ccc(NC2C[C@@H]3CC[C@@H](C)[C@@](O)(O3)C(=O)C(=O)N3CCCCC3C(=O)O[C@H]([C@H](C)C[C@@H]3CC[C@@H](O)[C@H](OC)C3)CC[C@H](C)/C=C(\C)[C@@H](O)[C@@H](OC)C(=O)[C@H](C)C[C@H](C)/C=C/C=C/C=C/2C)cc1 (stereo partly drawn) [Compound 47, (3S,6S,7E,9R,10R,12R,14S,15E,17E,19E,23S,26R,27R,34aS)-9,27-dihydroxy-3-((R)-1-((1S,3R,4R)-4-hydroxy-3-methoxycyclohexyl)propan-2-yl)-10-methoxy-21-((4-methoxyphenyl)amino)-6,8,12,14,20,26-hexamethyl-5,6,9,10,12,13,14,21,22,23,24,25,26,27,32,33,34,34a-octadecahydro-3H-23,27-epoxypyrido[2,1-c][1]oxa[4]azacyclohentriacontine-1,11,28,29(4H,31H)-tetraone] |  |  | 219 | near complete inhibition | did not inhibit S6K1 (Thr389)phosphorylation at any tested concentrations | 69 | relatively more selective to FKBP12 compared with RAD001 | 
CO[C@@H]1C[C@H](C[C@@H](C)[C@@H]2CC[C@H](C)/C=C(\C)[C@@H](O)[C@@H](OC)C(=O)[C@H](C)C[C@H](C)/C=C/C=C/C=C(\C)C(Nc3cnccn3)C[C@@H]3CC[C@@H](C)[C@@](O)(O3)C(=O)C(=O)N3CCCCC3C(=O)O2)CC[C@H]1O (some centres unmarked) [Compound 52] |  |  | 25 | near complete inhibition | did not inhibit S6K1 (Thr389)phosphorylation at any tested concentrations | 9.15 | selective to FKBP12 | 
CO[C@@H]1C[C@H](C[C@@H](C)[C@@H]2CC[C@H](C)/C=C(\C)[C@@H](O)[C@@H](OC)C(=O)[C@H](C)C[C@H](C)/C=C/C=C/C=C(\C)C(Nc3cccc(C#N)c3)C[C@@H]3CC[C@@H](C)[C@@](O)(O3)C(=O)C(=O)N3CCCCC3C(=O)O2)CC[C@H]1O (stereo partly drawn) [Compound 57, 3-(((3S,6S,7E,9R,10R,12R,14S,15E,17E,19E,23S,26R,27R,34aS)-9,27-dihydroxy-3-((R)-1-((1S,3R,4R)-4-hydroxy-3-methoxycyclohexyl)propan-2-yl)-10-methoxy-6,8,12,14,20,26-hexamethyl-1,11,28,29-tetraoxo-1,4,5,6,9,10,11,12,13,14,21,22,23,24,25,26,27,28,29,31,32,33,34,34a-tetracosahydro-3H-23,27-epoxypyrido[2,1-c][1]oxa[4]azacyclohentriacontin-21-yl)amino)benzonitrile] |  |  | 44 | near complete inhibition | inhibited the mTORC1 signaling in a dose dependent manner | 3.68 | relatively not FKBP12 selective | 
CO[C@@H]1C[C@H](C[C@@H](C)[C@@H]2CC[C@H](C)/C=C(\C)[C@@H](O)[C@@H](OC)C(=O)[C@H](C)C[C@H](C)/C=C/C=C/C=C(\C)C(Nc3ccsc3)C[C@@H]3CC[C@@H](C)[C@@](O)(O3)C(=O)C(=O)N3CCCCC3C(=O)O2)CC[C@H]1O (stereo partly drawn) [Compound 60, (3S,6S,7E,9R,10R,12R,14S,15E,17E,19E,23S,26R,27R,34aS)-9,27-dihydroxy-3-((R)-1-((1S,3R,4R)-4-hydroxy-3-methoxycyclohexyl)propan-2-yl)-10-methoxy-6,8,12,14,20,26-hexamethyl-21-(thiophen-3-ylamino)-5,6,9,10,12,13,14,21,22,23,24,25,26,27,32,33,34,34a-octadecahydro-3H-23,27-epoxypyrido[2,1-c][1]oxa[4]azacyclohentriacontine-1,11,28,29(4H,31H)-tetraone] | 5.6 | 75 |  |  |  |  |  | CLint scaled at 1 µM [1, 6]: 370 mL/min/kg; microsomal CLint at 1 µM [1, 6]: 93.5 µL/min/mg; half-life at 1 µM ([1]; CD-1, pH 7.2, Mouse liver microsomes, 1 μM, 0.5 mg/ml protein, NADPH): 14.8 min; Remaining (T = 60 min) ([2]; Human liver microsomes): 6.6%; Remaining (T = NCF60 min) ([2]; Human liver microsomes): 99%; CLint scaled at 1 µM [2, 7]: 80.4 mL/min/kg; microsomal CLint at 1 µM [2, 7]: 89.3 µL/min/mg; half-life at 1 µM ([2]; pH 7.2, Human liver microsomes, 1 μM, 0.5 mg/ml protein, NADPH): 16 min
Rapamycin [reference compound] | 27 | 102 |  |  |  |  |  | CL ([1]; Mouse liver microsomes): 43.1 µL/min/mg; CLint ([1]; Mouse liver microsomes): 171 mL/min/kg; T1/2 [1, 5]: 32.1 min
